Data from the supplement of paper PMC10307832.

Assays:
Experiment in all cases: relative viability (nuclei count vs DMSO), 5 days (fraction); higher = more cells survive
TPCA-1 + Crizotinib = compound: C1=CC(=CC=C1C2=CC(=C(S2)NC(=O)N)C(=O)N)F [TPCA-1] + C[C@@H](Oc1cc(-c2cnn(C3CCNCC3)c2)cnc1N)c1c(Cl)ccc(F)c1Cl [Crizotinib] (partner 1 µM)
Procedure, shortened: (§1)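 Lung cancer cell lines in 1536-well plates got either a single drug or a fixed anchor-drug dose together with five library-drug doses (not always all listed) in √10 steps, by pin tool, on the day after seeding. Nuclei were counted after 5 days, and relative viability is the treated-to-vehicle ratio of nuclei counts. Values are medians of duplicate plates.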

TPCA-1 + Vorinostat = compound: C1=CC(=CC=C1C2=CC(=C(S2)NC(=O)N)C(=O)N)F [TPCA-1] + O=C(CCCCCCC(=O)Nc1ccccc1)NO [Vorinostat] (partner 1 µM)
Procedure, shortened: as §1

[1] = compound: C[C@]12O[C@H](C[C@]1(O)CO)n1c3ccccc3c3c4c(c5c6ccccc6n2c5c31)CNC4=O [Lestaurtinib] + O=C(CCCCCCC(=O)Nc1ccccc1)NO [Vorinostat] (partner 1 µM)
Procedure, shortened: as §1

TPCA-1 + Decitabine = compound: C1=CC(=CC=C1C2=CC(=C(S2)NC(=O)N)C(=O)N)F [TPCA-1] + Nc1ncn([C@H]2C[C@H](O)[C@@H](CO)O2)c(=O)n1 [Decitabine] (partner 2 µM)
Procedure, shortened: as §1

Cell Line	relative viability (TPCA-1 + Crizotinib; first compound 0.04 µM)	relative viability (TPCA-1 + Crizotinib; first compound 0.1265 µM)	relative viability (TPCA-1 + Crizotinib; first compound 0.4 µM)	relative viability (TPCA-1 + Crizotinib; first compound 1.265 µM)	relative viability (TPCA-1 + Crizotinib; first compound 4 µM)	relative viability (TPCA-1 + Vorinostat; first compound 0.04 µM)	relative viability (TPCA-1 + Vorinostat; first compound 0.1265 µM)	relative viability (TPCA-1 + Vorinostat; first compound 0.4 µM)	relative viability (TPCA-1 + Vorinostat; first compound 1.265 µM)	relative viability (TPCA-1 + Vorinostat; first compound 4 µM)	relative viability ([1]; first compound 0.005 µM)	relative viability ([1]; first compound 0.01581 µM)	relative viability ([1]; first compound 0.05 µM)	relative viability ([1]; first compound 0.1581 µM)	relative viability ([1]; first compound 0.5 µM)	relative viability (TPCA-1 + Decitabine; first compound 0.04 µM)	relative viability (TPCA-1 + Decitabine; first compound 0.1265 µM)	relative viability (TPCA-1 + Decitabine; first compound 0.4 µM)	relative viability (TPCA-1 + Decitabine; first compound 1.265 µM)	relative viability (TPCA-1 + Decitabine; first compound 4 µM)
NCI-H2023	0.75	0.667	0.658	0.636	0.512	0.634	0.608	0.772	0.506	0.241	0.639	0.445	0.577	0.371	0.117	0.256	0.195	0.228	0.227	0.182
LC-2-ad	0.441	0.427	0.464	0.413	0.263	0.742	0.69	0.705	0.716	0.155	0.713	0.768	0.41	0.296	0.203	0.773	0.678	0.741	0.854	0.776
ABC-1	1.38	1.05	0.957	0.733	0.569	1.4	1.14	1.38	1.29	0.926	1.02	1.2	1.03	0.887	0.329	1.49	1.07	1.16	1.09	1.27
NCI-H647	1.24	1.08	1.13	0.882	0.215	0.48	0.599	0.518	0.312	0.218	0.629	0.695	0.391	0.284	0.109	0.475	0.433	0.385	0.4	0.346
NCI-H1755	0.83	0.772	0.922	0.831	0.48	0.717	0.84	0.813	0.667	0.554	0.654	0.74	0.674	0.397	0.356	0.649	0.709	0.709	0.688	0.67
EPLC-272H	1.02	0.93	0.868	0.888	0.58	0.53	0.403	0.523	0.256	0.258	0.394	0.463	0.496	0.276	0.0829	0.458	0.318	0.41	0.372	0.382
NCI-H1437	0.941	0.892	0.892	0.872	0.834	0.921	0.867	0.897	0.819	0.784	0.819	1	0.843	0.731	0.525	0.601	0.566	0.572	0.566	0.669
EKVX	0.979	0.777	1.04	0.97	0.738	0.724	0.622	0.766	0.76	0.654	0.744	0.742	0.765	0.578	0.368	0.366		0.383	0.316	0.345
